Results as given in patent US8795659B2 (priority 2004, dated 2014).

System: Lewis Lung Carcinoma
Conditions: mouse, in vivo, ip

Row | Compound | % ILS (excluding survivors) [%] | Highest non-toxic dosage | T-C (tumor growth delay to 750 mg) [days] | tumor free survivors
1 | O=P1(NCCCl)OCCCN1CCCl (centres unmarked) [Ifosfamide] | 55 | 300 | 18 | 7/10
2 | O=P1(N(CCCl)CCCl)NCCCO1 (centres unmarked) [Cyclophosphamide, cyclophosphamide] | 68 | 200 | 27 | 5/10
